Data on 28 molecules can be found in patent EP4800013A1, “PARG INHIBITOR” (Shanghai Qilu Pharmaceutical Research and Development …, priority 2023, dated 2025).

Assay [1] concerns KURAMOCHI cells. Put plainly: Inhibition of proliferation of KURAMOCHI cells (CellTiter-Glo, intracellular ATP). In kind it is cell-based. The note with it: 168 h, incubated for 7 days, read-out: IC50 against KURAMOCHI cells. How it is done:
In this experiment, the inhibitory effect of the compounds of the present disclosure on the proliferation of the cancer cell line KURAMOCHI was evaluated by measuring intracellular ATP levels using a bioluminescent assay, and the half maximal inhibitory concentration (IC50) was determined.
RPMI 1640 medium (Cat. No. 11875-093), fetal bovine serum (10099-141), and 100× Pen/Strep (15070-063) were purchased from GIBCO. CellTiter-Glo Luminescent Cell Viability Assay reagent (Cat. No. G7573) was purchased from Promega.
• 1) Day 1: KURAMOCHI cells were counted using a cell counter and seeded into a 96-well culture plate at a density of 4000 cells per well in 100 µL medium. The plate was incubated overnight in an incubator (37°C, 5% CO2). • 2) Day 2: Using a D300e digital dispenser (TECAN), 500 nL of serially diluted test compounds of the present disclosure (starting at 10 µM, a total of 9 concentrations, 1:4 dilution) were added to the cells in the culture plate. The final concentration of DMSO was 0.5%. The cell culture plate was incubated for 7 days in a cell culture incubator (37°C, 5% CO2). Control group 1 received only medium and DMSO (100% inhibition group). Control group 2 received only DMSO (0% inhibition group). The final concentration of DMSO in both groups was 0.5%. • 3) Day 9: 100 µL of CellTiter-Glo reagent was added to each well. The plate was shaken at 500 rpm for 2 minutes, centrifuged at 1000 rpm for 1 minute, and then incubated at room temperature in the dark for 10 minutes to stabilize the luminescence signal. • 4) Luminescence signals were measured using an EnVision microplate reader (PerkinElmer). • 5) Data analysis was performed using GraphPad Prism 8. The IC50 values of the compounds of the present disclosure were calculated as follows. The CTG signal values were analyzed. The average inhibition rate of control group 1 (100% inhibition group) was set as the relative inhibition rate of 100%. The average inhibition rate of control group 2 (0% inhibition group) was set as the relative inhibition rate of 0%. The CTG signal values were converted into relative inhibition rates. The inhibition percentage (inhibition%) for each concentration of the compounds of the present disclosure was calculated according to the following formula: Inhibition% = (b−x)/(b−a)*100%; [formula] • a = CTG value (highest concentration), b = CTG value (blank well), x = CTG value (test well). • IC50 was calculated using GraphPad Prism 8. • (1) The concentration and inhibition rate corresponding to each well were recorded. Statistical calculation was performed using Log10 (compound concentration). • (2) The data were input into GraphPad Prism 8 and Analysis was selected. • (3) Nonlinear regression (curve fit) was selected. • (4) Log (inhibitor) vs. response - Variable slope was selected. • (5) The calculation formula was selected, and the calculation was performed according to the following formula: Y = Bottom + (Top - Bottom) / (1 + 10 ^ ((LogIC50 - X) * HillSlope)); X: log of dose or concentration; Y: response; Top and Bottom: maximum and minimum response. • (6) The IC50 values were calculated by fitting the data. Table 16: Inhibitory effect of the compounds of the present disclosure on the proliferation of KURAMOCHI cells
For orientation: In ATP-based viability assays light output follows the ATP content of the culture.

In assay [2] the target is T1, PARG (Homo sapiens, UniProt Q86W56).
T1 construct: made in house
Put plainly: Enzymatic inhibitory activity against PARG, HTRF assay. The class given is biochemical. The note with it: HTRF; PARylated PARP1 protein as substrate; 60 minutes at room temperature; read-out: IC50 against PARG enzyme. How it is done: In this experiment, the enzymatic inhibitory activity of the compounds of the present disclosure against PARG was determined using an HTRF (homogeneous time-resolved fluorescence) assay.
HTRF assay reagents were purchased from PerkinElmer (Cat. Nos. 61HISTLB and 610SAXLB). The purified protein was prepared in-house.
PARG enzyme reaction buffer: 50 mM Tris (pH 7.4), 0.1 mg/mL BSA, 3 mM EDTA, 0.4 mM EGTA, 1 mM DTT, 50 mM KCl, and 0.01% Tween 20.
• 1) Using an ultra-micro pipette, the compounds of the present disclosure were serially diluted (starting at 10 µM with 3- to 5-fold serial dilutions) and added to a 384-well reaction plate, with each concentration tested in duplicate wells. Control group 1 was added with 10 µM control compound (100% inhibition group). Control group 2 was added with DMSO (0% inhibition group). After compound addition, the 384-well plate was centrifuged at 1000 rpm for 1 minute. • 2) 2.5 µL of PARG protein was added to each well and incubated with the compounds of the present disclosure at room temperature for 15 minutes, followed by centrifugation at 1000 rpm for 1 minute. • 3) 2.5 µL of PARylated PARP1 protein was added to each well and incubated at room temperature for 60 minutes, followed by centrifugation at 1000 rpm for 1 minute. • 4) 5 µL of His-Tb & SA-XL665 HTRF assay reagents were added to each well and incubated at room temperature for 60 minutes, followed by centrifugation at 1000 rpm for 1 minute. • 5) […] were measured using a PHERAstar FSX microplate reader from BMG. • 6) Data analysis was performed using GraphPad Prism 8. The IC50 values of the compounds of the present disclosure were calculated as follows. […] The average value of duplicate wells in control group 2 (0% inhibition group) was set as the relative inhibition rate of 0%. The HTRF signal values were converted into relative inhibition rates. The IC50 values of the compounds were calculated by fitting the data to a four-parameter logistic model. Table 15: Enzymatic inhibitory activity of the compounds of the present disclosure against PARG
Background: Time-resolved FRET reads energy transfer from a long-lived donor to a nearby acceptor.

T1 sequence (Q86W56 whole entry): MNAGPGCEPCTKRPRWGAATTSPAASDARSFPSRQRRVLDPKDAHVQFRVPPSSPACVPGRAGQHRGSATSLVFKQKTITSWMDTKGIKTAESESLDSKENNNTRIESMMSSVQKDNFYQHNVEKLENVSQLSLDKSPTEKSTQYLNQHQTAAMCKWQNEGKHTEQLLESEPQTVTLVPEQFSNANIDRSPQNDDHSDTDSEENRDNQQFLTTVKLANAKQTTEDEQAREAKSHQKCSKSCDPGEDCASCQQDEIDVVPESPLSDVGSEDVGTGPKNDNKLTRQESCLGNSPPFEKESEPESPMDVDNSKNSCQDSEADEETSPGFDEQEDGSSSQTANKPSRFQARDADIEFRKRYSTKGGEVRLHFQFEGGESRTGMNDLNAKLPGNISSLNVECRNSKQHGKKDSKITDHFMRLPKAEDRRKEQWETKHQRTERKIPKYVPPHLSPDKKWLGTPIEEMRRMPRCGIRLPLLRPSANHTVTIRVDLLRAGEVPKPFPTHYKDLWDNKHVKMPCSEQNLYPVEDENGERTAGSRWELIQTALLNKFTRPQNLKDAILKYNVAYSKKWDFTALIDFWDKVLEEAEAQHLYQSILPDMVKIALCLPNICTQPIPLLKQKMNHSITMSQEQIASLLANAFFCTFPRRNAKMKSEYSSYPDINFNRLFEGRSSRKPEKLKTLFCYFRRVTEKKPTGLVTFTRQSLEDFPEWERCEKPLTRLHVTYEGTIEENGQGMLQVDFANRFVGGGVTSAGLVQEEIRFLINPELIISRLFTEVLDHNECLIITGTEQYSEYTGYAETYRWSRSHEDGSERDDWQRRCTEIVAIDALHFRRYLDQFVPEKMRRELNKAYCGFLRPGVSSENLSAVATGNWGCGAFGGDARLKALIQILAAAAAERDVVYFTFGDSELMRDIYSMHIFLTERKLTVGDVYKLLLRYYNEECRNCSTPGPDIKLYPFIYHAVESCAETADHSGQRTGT

One may read the IC50 as the concentration at which inhibition is half-maximal. Take `C=CCn1c(=O)n(-c2nnc(C(F)F)s2)c2cc(S(=O)(=O)NC3(C#N)CC3)cc(N3CCN(S(=O)(=O)C4CC4)CC3)c21` [Compound 067R]: the values for the concentration for half-maximal inhibition (IC50) in assay [1] and in assay [2] were 6 nM and 3.4 nM, respectively.
On to `C=CCn1c(=O)n(-c2nnc(C(F)F)s2)c2cc(S(=O)(=O)NC3(C#N)CC3)cc(N3CCN(C(=O)C4CC4)CC3)c21` [Compound 067S], for which the IC50 in assay [1] turned out to be 14 nM; in assay [2], 13.3 nM.
The matching figures for `C=CCn1c(=O)n(-c2nnc(C(F)F)s2)c2cc(S(=O)(=O)NC3(C#N)CC3)cc(N3CCN(C(=O)C(C)(C)C)CC3)c21` [Compound 067T]: 11 nM and 16 nM.
For `C=CCn1c(=O)n(-c2nnc(C(F)F)s2)c2cc(S(=O)(=O)NC3(C#N)CC3)cc(N3CCN(C(=O)C4CCC4)CC3)c21` [Compound 067U], the IC50 worked out at 21 nM in assay [1] and 20 nM in assay [2].
`C=CCn1c(=O)n(-c2nnc(C(F)F)s2)c2cc(S(=O)(=O)NC3(C#N)CC3)cc(N3CCN(C(=O)C4COC4)CC3)c21` [Compound 067V]: the results for the IC50 in assay [1] and in assay [2] were 83 nM and 13.4 nM, respectively.
As for `C=CCn1c(=O)n(-c2nnc(C(F)F)s2)c2cc(S(=O)(=O)NC3(C#N)CC3)cc(N3CCN(C(=O)[C@@H](C)CC)CC3)c21` [Compound 067W2], the figures for the IC50 in assay [1] and in assay [2] were 11 nM and 13.1 nM, respectively.
Take `C=CCn1c(=O)n(-c2nnc(C(F)F)s2)c2cc(S(=O)(=O)NC3(C#N)CC3)cc(N3CCN(C(=O)[C@H](C)CC)CC3)c21` [Compound 067Wl]: the figures for the IC50 in assay [1] and in assay [2] were 23 nM and 19.7 nM, respectively.
For the molecule `C=CCn1c(=O)n(-c2nnc(C(F)F)s2)c2cc(S(=O)(=O)NC3(C#N)CC3)cc(N3CCN(C(=O)C4CCCC4)CC3)c21` [Compound 067X], the IC50 in assay [1] was found to be 23 nM; in assay [2], 21.1 nM.
On to `C=CCn1c(=O)n(-c2nnc(C(F)F)s2)c2cc(S(=O)(=O)NC3(C#N)CC3)cc(N3CCN(C(=O)C4(C)CC4)CC3)c21` [Compound 067Y], for which the half-inhibitory concentration (IC50) in assay [1] was 34 nM; in assay [2], 21.2 nM.
Regarding `C=CCn1c(=O)n(-c2nnc(C(F)F)s2)c2cc(S(=O)(=O)NC3(CF)CC3)cc(N3CCN(C(=O)C(C)C)CC3)c21` [Compound 068A], the IC50 in assay [1] worked out at 4 nM; in assay [2] it was 3.5 nM.
In the case of `C=CCn1c(=O)n(-c2nnc(C(F)F)s2)c2cc(S(=O)(=O)NC3(C)COC3)cc(N3CCN(C(=O)C(C)C)CC3)c21` [Compound 068B], the IC50 in assay [1] is 17 nM; in assay [2] it was 15.8 nM.
For `C=CCn1c(=O)n(-c2nnc(C(F)(F)F)s2)c2cc(S(=O)(=O)NC3(C#N)CC3)cc(N3CCN(C(=O)C(C)C)CC3)c21` [Compound 070A], in that order: 18 nM and 15.3 nM.
In the case of `C=CCn1c(=O)n(-c2nnc(C(F)(F)F)s2)c2cc(S(=O)(=O)NC3(C#N)CC3)cc(N3CCN(C(=O)C(C)(C)O)CC3)c21` [Compound 070B], the IC50 is 25 nM in assay [1] and 20.3 nM in assay [2].
Consider `C=CCn1c(=O)n(-c2nnc(C(F)F)s2)c2cc(S(=O)(=O)NC3(C#N)CC3)cc(N3CCN(C(=O)C(C)(C)O)[C@H](C)C3)c21` [Compound 071C2], for which the results for the IC50 in assay [1] and in assay [2] were 50 nM and 8.9 nM, respectively.
For the molecule `C=CCn1c(=O)n(-c2nnc(C(F)F)s2)c2cc(S(=O)(=O)NC3(C#N)CC3)cc(N3CCN(C(=O)C4CCOC4)CC3)c21` (centres unmarked) [Compound 072B], the values for the IC50 in assay [1] and in assay [2] were 53 nM and 15.9 nM, respectively.
Take `C=CCn1c(=O)n(-c2nnc(C(F)F)s2)c2cc(S(=O)(=O)NC3(C#N)CC3)cc(N3CCN(C(=O)C(C)(O)C(F)(F)F)CC3)c21` (centres unmarked) [Compound 073A]: the figures for the IC50 in assay [1] and in assay [2] were 34 nM and 30.6 nM, respectively.
Turning to `C=CCn1c(=O)n(-c2nnc(C(F)F)s2)c2cc(S(=O)(=O)NC3(C#N)CC3)cc(N3CCN(C(=O)C4(O)CCC4)CC3)c21` [Compound 073B], the IC50 in assay [1] came out at 22 nM; in assay [2], 4.5 nM.
In the case of `C=CCn1c(=O)n(-c2nnc(C(F)F)s2)c2cc(S(=O)(=O)NC3(C#N)CC3)cc(N3CCN([S+]([O-])C(C)(C)C)CC3)c21` (centres unmarked) [Compound 074A-11], the IC50 in assay [1] was 4 nM; in assay [2], 2.8 nM.
For `C=CCn1c(=O)n(-c2nnc(C(F)F)s2)c2cc(S(=O)(=O)NC3(C#N)CC3)cc(N3CCN(S(=O)(=O)C(C)(C)C)CC3)c21` [Compound 074A], the 50% inhibitory concentration (IC50) in assay [1] is 1 nM; in assay [2], 0.8 nM.
In the case of `C=CCn1c(=O)n(-c2nnc(C(F)F)s2)c2cc(S(=O)(=O)NC3(C#N)CC3)cc(N3CCN(S(=O)(=O)C4(C)CC4)CC3)c21` [Compound 074B], the figures for the IC50 in assay [1] and in assay [2] were 3 nM and 2.7 nM, respectively.
`C=CCn1c(=O)n(-c2nnc(C(F)F)s2)c2cc(S(=O)(=O)NC3(C#N)CC3)cc(N3CCN(S(=O)(=O)C4CCOC4)CC3)c21` (centres unmarked) [Compound 074C]: the results for the IC50 in assay [1] and in assay [2] were 13 nM and 2.9 nM, respectively.
For the molecule `C=CCn1c(=O)n(-c2nnc(C(F)F)s2)c2cc(S(=O)(=O)NC3(C#N)CC3)cc(N3CCN(S(=N)(=O)C(C)C)CC3)c21` (centres unmarked) [Compound 074G], the IC50 is 40 nM in assay [1] and 3.3 nM in assay [2].
For `C=CCn1c(=O)n(-c2nnc(C(F)F)s2)c2cc(S(=O)(=O)NC3(C#N)CC3)cc(N3CCN(S(=O)(=O)N(C)C)CC3)c21` [Compound 074H], the values for the IC50 in assay [1] and in assay [2] were 12 nM and 7.5 nM, respectively.
As for `C#CCn1c(=O)n(-c2nnc(C(F)F)s2)c2cc(S(=O)(=O)NC3(C#N)CC3)cc(N3CCN(C(=O)C(C)C)CC3)c21` [Compound 074K], the IC50 in assay [1] stood at 8 nM; in assay [2], 1.9 nM.
For `C=CCn1c(=O)n(-c2nnc(C(F)F)s2)c2cc(S(=O)(=O)NC3(C#N)CC3)cc(N3CCN([S+]([O-])C(C)C)CC3)c21` (centres unmarked) [Compound 074M], the figures for the IC50 in assay [1] and in assay [2] were 16 nM and 6.2 nM, respectively.
For `C=CCn1c(=O)n(-c2nnc(C(F)F)s2)c2cc(S(=O)(=O)NC3(C#N)CC3)cc(N3CCN(C(=O)C4CCCN4C(=O)OC)CC3)c21` (centres unmarked) [Compound 076E], in that order: 35 nM and 4.9 nM.
As to `C=CCn1c(=O)n(-c2nnc(C(F)F)s2)c2cc(S(=O)(=O)NC3(C#N)CC3)cc(N3CCN(C(=O)[C@@H]4CCCO4)CC3)c21` [Compound 076H1], the IC50 in assay [1] worked out at 34 nM; in assay [2], 14.4 nM.
Regarding `C=CCn1c(=O)n(-c2nnc(C(F)F)s2)c2cc(S(=O)(=O)NC3(C#N)CC3)cc(N3CCN(C(=O)[C@H]4CCCO4)CC3)c21` [Compound 076H2], the IC50 in assay [1] was determined as 40 nM; in assay [2] it was 14 nM.
